Literature values, collected in patent publication US6107305A, “Use of pyrazolo [3,4-b] pyridine as cyclin dependent kinase inhibitors” (Bristol-Myers Squibb Company, priority 1998, dated 2000).

Assays:
[1] = tested on: apoptosis; conditions: J. Cell Sci., 108, 2897 (1995)
[2] = tested on: cytotoxic activity

Row | SMILES | synergism with known cytotoxic agents in inducing apoptosis [1] | effect of sequence of administration with anticancer agents on cytotoxic activity [2]
1 | Cn1cnc2c(NCc3ccccc3)nc(NCCO)nc21 [olomucine] | act synergistically with known cytotoxic agents in inducing apoptosis | –
2 | CN1CC[C@H](c2c(O)cc(O)c3c(=O)cc(-c4ccccc4Cl)oc23)[C@H](O)C1 [flavopiridol] | – | affected by the sequence of administration with anticancer agents
